# According to US9029414B2, “Triterpenoid compounds and methods of use thereof” (Biotechnology Research Corporation, priority 2008, dated 2015):
# Tests used:
# [1] = test system: NGF, BDNF, NT-3 and NT-4 expression in cortical neurons; experiment: Neurotrophin gene expression (real-time PCR) in cortical neurons following NMDA treatment; type: cell-based; conditions: 24 hrs pre-treatment, then NMDA 20 μM 20 min; vs DMSO+NMDA
# Experimental: Cortical neurons were incubated with DA001 or the DMSO control for 24 hrs, followed by treatment with NMDA (20 μM) or water for 20 min. Gene expression was normalized against the house-keeping gene, hypoxanthine phosphoribosyltransferase 1 (HPRT1) and glyceraldehyde 3-phosphate dehydrogenase (GAPDH) and compared to the control (DMSO) with NMDA treatment. Relative changes in gene expression induced by DA001+NMDA was compared with DMSO+NMDA.
# Cortical neurons of 11 DIV-12 DIV were pre-incubated with DA001 or DMSO for 24 hours. Cells were washed in Locke's medium without magnesium for 15 min, followed by the treatment of NMDA (20 μM) or water for 20 min. Neurons were incubated with normal growth medium and total RNA were extracted at different time intervals after or without NMDA treatment. Total RNA was extracted using RNeasy Mini kit (Qiagen) according to the manufacturer's protocol, and was reverse-transcribed into single-stranded cDNA with SuperScript II Reverse Transcriptase (Invitrogen) and oligo-dT primers. Real-time Quantitative PCR was performed using Power SYBR Green PCR Master Mix (Applied Biosystems) on the Mx3000P Real-Time PCR System (Stratagene). Thermal cycling was initiated with a 10-min denaturation step at 95° C., followed by 40 cycles of 95° C. for 30 sec, 60° C. for 1 min and 72° C. for 30 sec. The final product was subjected to a Meltcurve detection at the end of the reaction. Regulation of the gene expression was normalized against home gene, hypoxanthine phosphoribosyltransferase 1 (HPRT1) and glyceraldehyde 3-phosphate dehydrogenase (GAPDH). Real-time PCR primers are as follows.
# Cortical neurons were pre-treated with DA001 after which the cells were subjected to NMDA insult. The expression of neurotrophins was measured at three different time intervals. DA001 induced NGF, BDNF and NT-3 expression but not NT-4 under the same conditions. FIG. 3 illustrates that cortical neurons were incubated with DA001 or the DMSO control for 24 hrs, followed by treatment with NMDA (20 μM) or water for 20 min. […]
# human MC1 receptor = human MC1 receptor (Homo sapiens, UniProt Q01726); experiment: Cellular receptor functional assay (cAMP), MC1; type: cell-based
# Experimental: DA001 inhibits ligand binding to MC1 and MC4 receptors. To determine whether the inhibitory effect is due to agonist or antagonist activity, DA001 was evaluated at 6 or 8 concentrations in cellular assays assessing receptor function. Upon ligand binding, the MC1 or MC4 receptor is activated which leads to an increase in intracellular cyclic AMP. […] DA001 alone is unable to induce cAMP increase (blue square dots). […] DA001 was further evaluated with MC2 receptor functional assay. Upon ligand binding, the MC2 receptor is activated which leads to an increase in intracellular cyclic AMP.
# [2] = test system: scopolamine-induced memory impaired mice; experiment: Morris water maze, scopolamine-induced memory impairment; type: in vivo; conditions: 10 mg/kg orally, scopolamine 4 mg/kg i.p.; day 4 and day 5
# Experimental: 6-8 week old outbred male I.C.R. mice, weighing 25-35 g were housed two per cage in a climatically controlled animal room (23-25° C.) under 12 hours light/dark cycling. The animals were allowed access to water and food ad lib. The mice used for the experiment were brought to particular laboratory conditions for two days. All the experiments were conducted between 14:00 and 18:00. […] The experimental mice were randomly assigned into 4 or 6 groups, each consisting of 12 mice with similar mean body weights and age. The test compound was dissolved in physiological saline before the experiments each day. […]
# Each mouse was subjected to 4 trials per day for 5 consecutive days. […] The probe trial (without platform) was assessed within a 60 s period on the fifth day of behavioral testing (one experiment), and the time spent in the southeast quadrant where the escape platform had been set during training was recorded computationally and presented as percentage of spatial bias.
# The two-way ANOVA with repeated measures was used to analyze latency values, and calculated as the mean latency periods for each mouse. (Data are expressed as means±S.E.M. by using 2-way ANOVA). One-way ANOVA followed by Duncan's multiple-range test (data expressed as mean±S.E.M. *P<0.05 and **P<0.01 versus scopolamine) was used to analyze group differences of the data collected during probe trials. […]
# EP3 receptor = EP3 receptor (Homo sapiens, UniProt P43115); experiment: Radioligand competition binding assay, EP3; conditions: EP3, target PGE2; compound at 10 μM in duplicate; read-out: % inhibition of control specific binding
# Experimental: To determine the targets of DA compounds, the compound was assessed in binding assays for the family of prostanoid receptors. Both compounds were tested at a single concentration (10 μM) in duplicate. DA001 and DA021 inhibit the ligand binding of prostaglandin E2 receptors EP1, EP2 and EP4 and moderately to prostaglandin (PGF) to its receptor (FP), but not prostaglandin I (PGI2), thromoboxane A and prostaglandin D2 to their receptors.
# Chain of human MC1 receptor (Q01726 whole entry): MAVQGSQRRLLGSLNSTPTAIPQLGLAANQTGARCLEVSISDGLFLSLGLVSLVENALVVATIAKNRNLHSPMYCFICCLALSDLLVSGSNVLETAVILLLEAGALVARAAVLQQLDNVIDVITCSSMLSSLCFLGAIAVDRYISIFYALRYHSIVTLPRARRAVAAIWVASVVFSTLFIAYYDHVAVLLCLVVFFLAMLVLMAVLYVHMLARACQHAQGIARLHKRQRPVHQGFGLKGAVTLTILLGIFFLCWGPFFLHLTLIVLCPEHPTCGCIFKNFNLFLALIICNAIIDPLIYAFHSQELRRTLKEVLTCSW
# Chain of EP3 receptor (P43115 whole entry): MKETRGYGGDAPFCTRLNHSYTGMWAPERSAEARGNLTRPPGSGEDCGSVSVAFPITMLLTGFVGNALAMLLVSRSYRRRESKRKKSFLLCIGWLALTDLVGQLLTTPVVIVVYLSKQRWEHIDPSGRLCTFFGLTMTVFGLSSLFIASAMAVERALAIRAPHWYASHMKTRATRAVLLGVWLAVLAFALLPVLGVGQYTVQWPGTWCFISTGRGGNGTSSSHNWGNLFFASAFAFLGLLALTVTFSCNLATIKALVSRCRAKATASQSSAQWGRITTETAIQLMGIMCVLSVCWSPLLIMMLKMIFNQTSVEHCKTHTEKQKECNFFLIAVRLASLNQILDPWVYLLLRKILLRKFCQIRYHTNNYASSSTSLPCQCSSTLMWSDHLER
Structure (SMILES),BDNF expression [1],NGF expression [1],NT-3 expression [1],Kb (human MC1 receptor; antagonist effect at human MC1 receptor) [µM],"IC50 (human MC1 receptor; inhibition of cAMP increase by NDP-α-MSH, cells over-expressing MC1, read-out: IC50, antagonist effect) [µM]",escape latency [2],inhibition at 10 µM (EP3 receptor) [%]
"C=C(C)[C@@H]1CC[C@]2(C(=O)O)CC[C@]3(C)C(CC[C@@H]4[C@@]5(C)CC[C@H](O[C@@H]6OC[C@H](O)[C@H](O)[C@H]6O[C@@H]6O[C@@H](C)[C@H](O)[C@@H](O)[C@H]6O)[C@@](C)(CO)[C@@H]5CC[C@]43C)[C@@H]12 (stereo partly drawn) [DA001, 3-O-[α-L-rhamnopyranosyl-(1→2)-α-L-arabinopyranosyl]-3,23-dihydroxy-20(29)-lupen-28-oic acid]",induced,induced,induced,5.3,50,–,–
C=C(C)[C@@H]1CC[C@]2(/C=N/O)CC[C@]3(C)C(CCC4[C@@]5(C)CCC(=O)[C@@](C)(CO)[C@@H]5CC[C@]43C)C12 (stereo partly shown) [DA021],–,–,–,–,–,significantly reversed the increased escape latency,-3
